Laboratory results reported in ChEMBL document CHEMBL3872207, “Aromatic heterocyclic esters of podophyllotoxin exert anti-MDR activity in human leukemia K562/ADR cells via ROS/MAPK signaling pathways” (Eur J Med Chem, 2016).
Active and inactive are the calls of the source. The calls are words filed in the database; no cut-off is given here.

How the values were obtained:
[1] = Potency index, ratio of doxorubicin IC50 to compound IC50 for antiproliferative activity against human K562/ADR cells; format: functional
[2] = Downregulation of CDK1 expression in human K562/ADR cells assessed as ratio of CDK1 to beta-actin level at 0.1 uM measured after 48 hrs by Western blot analysis (reference value: 0.53); format: functional, cell-based
[3] = target: T1, c-Jun N-terminal kinase, JNK (Homo sapiens) (UniProt P45983+P53779+P45984); experiment: Induction of JNK phosphorylation in human K562/ADR cells assessed as ratio of phosphorylated JNK to beta-actin level at 0.1 uM pretreated with MAPK inhibitor SB203580 for 1 hr followed by compound addition after 48 hrs by Western blotting method (reference value: 0.46); format: cell-based
[4] = tested on: K562/Adr; experiment: Induction of apoptosis in human K562/ADR cells assessed as early apoptotic cells at 0.1 uM after 48 hrs by Annexin V-APC/7-AAD staining based flow cytometry (reference value: 2.74%); format: functional
[5] = tested on: K562/Adr; experiment: Induction of ERK1/2 phosphorylation in human K562/ADR cells assessed as ratio of phosphorylated ERK1/2 to beta-actin level at 0.1 uM pretreated with ROS scavenger NAC for 2 hrs followed by compound addition after 48 hrs by Western blotting method (reference value: 0.22); format: cell-based
[6] = Downregulation of P-gp expression in human K562/ADR cells assessed as ratio of P-gp to beta-actin level at 0.1 uM pretreated with ROS scavenger NAC for 2 hrs followed by compound addition measured after 48 hrs by Western blot analysis (reference value: 0.63); format: functional, cell-based
[7] = target: T2, MAP kinase p38 (Homo sapiens) (UniProt O15264+Q15759+Q16539+P53778); experiment: Induction of P38 phosphorylation in human K562/ADR cells assessed as ratio of phosphorylated p38 to beta-actin level at 0.1 uM pretreated with ROS scavenger NAC for 2 hrs followed by compound addition after 48 hrs by Western blotting method (reference value: 0.25); format: cell-based
[8] = tested on: K562/Adr; experiment: Induction of apoptosis in human K562/ADR cells assessed as ratio of cleaved caspase-8 to beta-actin level at 0.1 uM pretreated with ROS scavenger NAC for 2 hrs followed by compound addition measured after 48 hrs by Western blot analysis (reference value: 0.07); format: functional
[9] = target: T1, c-Jun N-terminal kinase, JNK (Homo sapiens); experiment: Induction of JNK phosphorylation in human K562/ADR cells assessed as ratio of phosphorylated JNK to beta-actin level at 0.1 uM pretreated with ROS scavenger NAC for 2 hrs followed by compound addition after 48 hrs by Western blotting method (reference value: 0.46); format: cell-based
[10] = Downregulation of CDK1 expression in human K562/ADR cells assessed as ratio of CDK1 to beta-actin level at 0.1 uM pretreated with MAPK inhibitor SP600125for 1 hr followed by compound addition measured after 48 hrs by Western blot analysis (reference value: 0.53); format: functional, cell-based
[11] = tested on: K562/Adr; experiment: Induction of apoptosis in human K562/ADR cells assessed as ratio of cleaved PARP to beta-actin level at 0.1 uM pretreated with ROS scavenger NAC for 2 hrs followed by compound addition measured after 48 hrs by Western blot analysis (reference value: 0.04); format: functional
[12] = tested on: K562/Adr; experiment: Induction of apoptosis in human K562/ADR cells assessed as necrotic cells at 0.1 uM pretreated with ROS scavenger NAC for 2 hrs followed by compound addition after 48 hrs by Annexin V-APC/7-AAD staining based flow cytometry (reference value: 0.26%); format: functional
[13] = tested on: K562/Adr; experiment: Induction of apoptosis in human K562/ADR cells assessed as late apoptotic cells at 0.1 uM pretreated with ROS scavenger NAC for 2 hrs followed by compound addition after 48 hrs by Annexin V-APC/7-AAD staining based flow cytometry (reference value: 1.69%); format: functional
[14] = Downregulation of CDK1 expression in human K562/ADR cells assessed as ratio of CDK1 to beta-actin level at 0.1 uM pretreated with ROS scavenger NAC for 2 hrs followed by compound addition measured after 48 hrs by Western blot analysis (reference value: 0.53); format: functional, cell-based
[15] = tested on: K562/Adr; experiment: Induction of apoptosis in human K562/ADR cells assessed as ratio of cleaved caspase-8 to beta-actin level at 0.1 uM pretreated with MAPK inhibitor U0126 for 1 hr followed by compound addition measured after 48 hrs by Western blot analysis (reference value: 0.07); format: functional
[16] = tested on: K562/Adr; experiment: Induction of apoptosis in human K562/ADR cells assessed as ratio of cleaved caspase-9 to beta-actin level at 0.1 uM pretreated with MAPK inhibitor U0126 for 1 hr followed by compound addition measured after 48 hrs by Western blot analysis (reference value: 0.05); format: functional
[17] = target: T2, MAP kinase p38 (Homo sapiens); experiment: Induction of P38 phosphorylation in human K562/ADR cells assessed as ratio of phosphorylated p38 to beta-actin level at 0.1 uM pretreated with MAPK inhibitor SB203580 for 1 hr followed by compound addition after 48 hrs by Western blotting method (reference value: 0.25); format: cell-based
[18] = Downregulation of CDK1 expression in human K562/ADR cells assessed as ratio of CDK1 to beta-actin level at 0.1 uM pretreated with MAPK inhibitor SB203580 for 1 hr followed by compound addition measured after 48 hrs by Western blot analysis (reference value: 0.53); format: functional, cell-based
[19] = Downregulation of CDK2 expression in human K562/ADR cells assessed as ratio of CDK2 to beta-actin level at 0.1 uM pretreated with MAPK inhibitor SP600125 for 1 hr followed by compound addition measured after 48 hrs by Western blot analysis (reference value: 0.65); format: functional, cell-based
[20] = Downregulation of P-gp expression in human K562/ADR cells assessed as ratio of P-gp to beta-actin level at 0.1 uM pretreated with MAPK inhibitor SP600125 for 1 hr followed by compound addition measured after 48 hrs by Western blot analysis (reference value: 0.63); format: functional, cell-based
[21] = tested on: K562/Adr; experiment: Induction of ROS generation in human K562/ADR cells at 0.1 uM measured after 24 hrs by DCFH-DA probe based inverted fluorescence microscopy; format: functional, cell-based
[22] = tested on: K562/Adr; experiment: Induction of apoptosis in human K562/ADR cells assessed as viable cells at 0.1 uM pretreated with MAPK inhibitor SP600125 for 1 hr followed by compound addition after 48 hrs by Annexin V-APC/7-AAD staining based flow cytometry (reference value: 95.31%); format: functional; settings: read-out: Activity
[23] = tested on: K562/Adr; experiment: Induction of apoptosis in human K562/ADR cells assessed as ratio of cleaved caspase-9 to beta-actin level at 0.1 uM pretreated with ROS scavenger NAC for 2 hrs followed by compound addition measured after 48 hrs by Western blot analysis (reference value: 0.05); format: functional
[24] = tested on: K562/Adr; experiment: Induction of apoptosis in human K562/ADR cells assessed as necrotic cells at 0.1 uM pretreated with MAPK inhibitor U0126 for 1 hr followed by compound addition after 48 hrs by Annexin V-APC/7-AAD staining based flow cytometry (reference value: 0.26%); format: functional; set-up: scale not given: the % may be the effect or the level left
[25] = Downregulation of CDK2 expression in human K562/ADR cells assessed as ratio of CDK2 to beta-actin level at 0.1 uM measured after 48 hrs by Western blot analysis (reference value: 0.65); format: functional, cell-based

COc1cc([C@@H]2c3cc4c(cc3[C@H](OC(=O)c3ccco3)[C@H]3COC(=O)[C@H]23)OCO4)cc(OC)c1OC
Ratio IC50 [1]: 586.843 | Ratio [2]: 0.17 | Ratio [3]: 0.3 | Activity [4]: 7.92% | Ratio [5]: 0.22 | Ratio [6]: 0.66 | Ratio [7]: 0.29 | Ratio [8]: 0.15 | Ratio [9]: 0.51 | Ratio [10]: 0.19 | Ratio [11]: 0.13 | Activity [12]: 2.14% | Activity [13]: 24.34% | Ratio [14]: 0.49 | Ratio [15]: 0.42 | Ratio [16]: 0.26 | Ratio [17]: 0.02 | Ratio [18]: 0.2 | Ratio [19]: 0.22 | Ratio [20]: 0.34 | Activity [21]: Active | viability at 0.1 µM [22]: 58.5% | Ratio [23]: 0.1 | Activity [24]: 3.32% | Ratio [25]: 0.14
